ChEMBL document CHEMBL3638513, “Compounds that are ERK inhibitors” (2013)

Biological target: Mitogen-activated protein kinase 1 (Mus musculus, UniProt P63085)
Assay: IMAP Assay: Activated ERK2 activity was determined in the IMAP assay format.

Sequence of Mitogen-activated protein kinase 1 (P63085 whole entry): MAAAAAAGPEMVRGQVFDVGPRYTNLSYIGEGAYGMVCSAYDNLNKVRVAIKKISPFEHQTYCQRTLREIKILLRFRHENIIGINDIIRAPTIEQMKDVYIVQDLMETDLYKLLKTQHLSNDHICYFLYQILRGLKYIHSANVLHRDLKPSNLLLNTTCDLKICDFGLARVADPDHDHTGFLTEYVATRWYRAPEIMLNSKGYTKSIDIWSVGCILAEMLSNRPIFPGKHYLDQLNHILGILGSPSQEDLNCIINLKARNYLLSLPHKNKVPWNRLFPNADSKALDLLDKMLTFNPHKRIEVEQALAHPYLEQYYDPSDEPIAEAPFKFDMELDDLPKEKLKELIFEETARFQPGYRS

IC50: 18.1 nM
SMILES: COC[C@@]1(C(=O)Nc2ccc3[nH]nc(-c4ccnc(C5CC5)c4)c3c2)CCN(CC(=O)N2CC=C(c3ccc(-c4ncccn4)cc3)CC2)C1
